The source of these data is paper PMC6068344, “CPP‐E1A fusion peptides inhibit CtBP‐mediated transcriptional repression” (Molecular Oncology, 2018).

One data set concerns the target CtBP1. To be noted: ref Zhang et al., 2002; read-out: K d, binding to CtBP1; cited from earlier work. An excerpt: This idea is strengthened by several studies that have found a correlation between CtBP1/2 overexpression and cancer progression in multiple tumor types, including blood (Senyuk et al., 2002), skin (Deng et al., 2013), breast (Birts et al., 2010; Deng et al., 2012; Di et al., 2013), prostate (Moiola et al., 2014; Wang et al., 2012), ovarian (May et al., 2013; Zhang e ...

The target in a further data set is 6xHis‐CtBP1 (UniProt Q13363). The data set is described as follows: AlphaScreen. To be noted: competition against the CtBP1-E1A interaction, peptide at 250 µM (highest concentration), IC50 printed as 'Not determined', read off a plot. A general note: Bead proximity is the source of the signal in Alpha formats.
Data set [1] has as its target T1, 6xHis-CtBP1 and GST-E1A (CtBP1-E1A interaction) (Homo sapiens, UniProt Q13363).
T1 construct: 6xHis; made in house
The data set is described as follows: AlphaScreen assay of the CtBP1-E1A interaction. The data set is classed as binding. Conditions: AlphaScreen competition with GST-E1A; 125 nM 6xHis-CtBP1, 125 nM GST-E1A; peptide 2 μM to 200 μM; three experiments in triplicate; GraphPad Prism; read-out: IC50 (μM), disruption of the CtBP1-E1A interaction. The method, then:
The AlphaScreen assay was carried out using 6xHis‐CtBP1 and GST‐E1A proteins following the manufacturer's protocol (PerkinElmer, Waltham, MA, USA) unless otherwise specified. GST‐E1A and 6xHis‐CtBP were purified as previously described (Blevins et al., 2015). To confirm inhibition by CPP‐E1A peptides, each peptide was added at varying concentrations (2 μM to 200 μM) to compete with GST‐E1A in the AlphaScreen assay containing 125 nM 6xHis‐CtBP1 and 125 nM GST‐E1A. The IC50 value of each peptide was calculated using the GRAPHPAD PRISM software (GraphPad Software, San Diego, CA, USA).

Data set [2] has as its system H1299 cells. The data set is described as follows: Peptide internalization by anti-FLAG immunofluorescence in H1299 cells. The data set is classed as in vitro ADME, human. Conditions: 20 μM peptide, 30 min, DAPI. The method, then:
(§1) H1299 or A375 cells were allowed to adhere to a cover slip overnight in DMEM complete media and grown until they reached approximately 75% confluency on the cover slip surface. After a 30 min treatment with 20 μM peptides, TAT (used as a negative control), TAT‐E1A‐WT, and Pep1‐E1A‐WT, cells were fixed for 10 min using 100% methanol, and permeabilized for 1 min in 100% acetone. Each sample was stained with an anti‐FLAG antibody and detected using an Alexa Fluor 555 anti‐mouse IgG (4409S; Cell Signaling Technology, Danvers, MA, USA). DAPI staining was used to visualize the nucleus.

The test system of a further data set is A375 cells. The data set is described as follows: Peptide internalization by anti-FLAG immunofluorescence in A375 cells. The data set is classed as in vitro ADME, human. To be noted: for Entry into A375 cells: anti-FLAG immunofluorescence as in Figure 2 (20 μM, 30 min). As for the experimental part: as §1
Data set [3] has as its system H1299 cells. The data set is described as follows: Subcellular fractionation and anti-FLAG western blot of the nuclear fraction. It counts as in vitro ADME, human. To be noted: 1-h treatment, anti-FLAG, two biological replicates. The method, then: For cellular fractionation, H1299 cells were treated with 42 μg·mL^−1 digitonin in NEH lysis buffer (20 mM HEPES [pH 7.4], 150 mM NaCl, 0.2 mM EDTA, 2 mM DTT, and 2 mM MgCl2) plus a protease inhibitor cocktail (Roche) for 10 min at 4 °C. The H1299 cell lysate was centrifugated at 15 000 g in a Beckman Coulter Microfuge 22R (Beckman Coulter, Brea, CA, USA) for 10 min at 4 °C to remove the cytosolic fraction. The remaining pellet was washed twice with chilled PBS before the addition of the nuclear lysis buffer (40 mM Tris/HCl [pH 7.4], 100 mM NaCl, 10% glycerol, 2 mM β‐ME, and 0.5% Triton X‐100) plus the protease inhibitor cocktail. The nuclear fraction was incubated at 4 °C for 1 h before the final centrifugation at 15 000 g for 20 min. The soluble nuclear fraction was then used for a western blot analysis to monitor peptide levels within the nuclear fraction using a FLAG antibody (LT0420; LifeTein LLC, Somerset, NJ, USA). The western blot was also probed with primary antibodies against α‐tubulin (sc‐8035; SantaCruz Biotechnology, Dallas, TX, USA) and HDAC1 (ab‐68436; Abcam, Cambridge, MA, USA) as cytoplasmic and nuclear controls, respectively, to confirm subcellular fractionation.
A general note: A western blot detects proteins with antibodies after separation by electrophoresis.

Data set [4] is described as follows: Peptide stability in H1299 cells (western blot, fluorescence microscopy). The data set is classed as in vitro ADME, human. To be noted: 10 μM, 45 min, 2 h, 4 h, 8 h, western blot and FITC fluorescence microscopy.

No end group written: not given here.

Take `NC(=O)C1=CN([C@@H]2O[C@H](COP(=O)(O)OP(=O)(O)OC[C@H]3O[C@@H](n4cnc5c(N)ncnc54)[C@H](O)[C@@H]3O)[C@@H](O)[C@H]2O)C=CC1` [NADH, nicotinamide adenine dinucleotide]: the Kd at CtBP1 is 0.1 µM.

In the case of Pep1‐E1A‐WT L35E; S36L, the response with 6xHis‐CtBP1 (parent: est. 5) stood at 58 % Bound.

In general, IC50 refers to the concentration that gives 50% inhibition. “GSHMGRKKRRQRRRPPQLEEPGQPLDLSCKRPRDYKDDDDK [TAT-E1A-WT]”: the half-maximal inhibitory concentration (IC50) in data set [1] turned out to be 5.6 ± 1.4 µM. The “Localization to the nucleus by immunofluorescence” value in the data set with H1299 cells [2] is listed as “much lower amount in the nucleus”. Besides, the “Entry into A375 cells” value with A375 cells is listed as “can enter the A375 cells”. Besides, in the data set with H1299 cells [3], the “Peptide in the nuclear fraction (western blot)” value is given as “found in the nuclear fraction”.

With TAT‐E1A‐WT L27E; S28L, the response with 6xHis‐CtBP1 (parent: est. 3) was 80 % Bound.

For “GSHMKETWWETWWTEWSQPKKKRKVLEEPGQPLDLSCKRPRDYKDDDDK [Pep1-E1A-WT]”, in data set [1], the 50% inhibitory concentration (IC50) turned out to be 7.1 ± 1.2 µM. In the data set on H1299 cells [2], the “Localization to the nucleus by immunofluorescence” value is on record as “significant amount of localization to the nucleus”. Also, the “Nuclear localization pattern in A375 cells” value in the data set with A375 cells (anti-FLAG immunofluorescence as in Figure 2) is on record as “more predominant nuclear localization pattern”. The “Entry into A375 cells” value with A375 cells is reported as “can enter the A375 cells”. In addition, the “Peptide in the nuclear fraction (western blot)” value in the data set with H1299 cells [3] was “found in the nuclear fraction”. In addition, the “Peptide half-life / stability in vitro” value in data set [4] is on record as “short half‐life”.
